According to publication PMC3961306, “Comparison of the Cancer Gene Targeting and Biochemical Selectivities of All Targeted Kinase Inhibitors Approved for Clinical Use” (PLoS ONE, 2014):

Key:
Experiment in all cases: Kinase profiling in a biochemical assay panel (mobility shift assays and ELISA), %-inhibition at 1 μM; selectivity entropy
[1] = biological target: T1, panel of more than 300 wild-type and mutant kinases (313 kinase panel) (Homo sapiens, UniProt O15111)
T1 sequence (O15111 1-745): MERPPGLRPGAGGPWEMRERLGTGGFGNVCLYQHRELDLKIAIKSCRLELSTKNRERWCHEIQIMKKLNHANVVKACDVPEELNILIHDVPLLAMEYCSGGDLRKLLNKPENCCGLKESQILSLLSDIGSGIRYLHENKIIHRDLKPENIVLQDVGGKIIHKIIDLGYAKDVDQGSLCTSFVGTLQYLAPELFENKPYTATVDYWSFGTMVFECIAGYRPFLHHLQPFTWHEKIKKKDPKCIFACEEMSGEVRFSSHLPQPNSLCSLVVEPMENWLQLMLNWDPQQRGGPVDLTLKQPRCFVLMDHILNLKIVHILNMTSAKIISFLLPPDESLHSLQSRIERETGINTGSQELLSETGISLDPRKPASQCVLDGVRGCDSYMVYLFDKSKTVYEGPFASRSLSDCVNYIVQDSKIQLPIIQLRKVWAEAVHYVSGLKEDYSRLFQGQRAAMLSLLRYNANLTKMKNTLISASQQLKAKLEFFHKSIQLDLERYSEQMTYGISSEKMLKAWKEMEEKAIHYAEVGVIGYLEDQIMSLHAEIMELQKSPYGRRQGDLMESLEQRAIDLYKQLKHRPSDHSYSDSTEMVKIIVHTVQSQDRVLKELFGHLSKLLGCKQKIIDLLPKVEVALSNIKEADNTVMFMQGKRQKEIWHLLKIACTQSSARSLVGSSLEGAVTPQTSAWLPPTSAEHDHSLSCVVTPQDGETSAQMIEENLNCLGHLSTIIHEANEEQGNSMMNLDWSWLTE

[2] = biological target: panel of more than 300 wild-type and mutant kinases (313 kinase panel) (Homo sapiens, UniProt P23458)
[3] = biological target: panel of more than 300 wild-type and mutant kinases (313 kinase panel) (Homo sapiens, UniProt P24941)
[4] = biological target: panel of more than 300 wild-type and mutant kinases (313 kinase panel) (Homo sapiens, UniProt P29597)
[5] = biological target: T2, panel of more than 300 wild-type and mutant kinases (313 kinase panel) (Homo sapiens, UniProt P45985)
T2 sequence (P45985 1-399): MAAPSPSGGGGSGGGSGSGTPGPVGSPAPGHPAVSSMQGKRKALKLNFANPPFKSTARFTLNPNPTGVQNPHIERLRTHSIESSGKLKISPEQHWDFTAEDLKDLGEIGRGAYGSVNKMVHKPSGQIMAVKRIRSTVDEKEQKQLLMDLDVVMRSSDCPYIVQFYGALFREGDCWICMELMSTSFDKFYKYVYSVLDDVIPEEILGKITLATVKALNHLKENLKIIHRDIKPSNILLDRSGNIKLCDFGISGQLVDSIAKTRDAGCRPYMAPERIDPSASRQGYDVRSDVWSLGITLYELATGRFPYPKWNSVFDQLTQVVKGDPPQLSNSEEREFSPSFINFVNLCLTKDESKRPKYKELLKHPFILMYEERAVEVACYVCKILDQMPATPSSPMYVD

[6] = biological target: panel of more than 300 wild-type and mutant kinases (313 kinase panel) (Homo sapiens, UniProt P78368)
[7] = biological target: panel of more than 300 wild-type and mutant kinases (313 kinase panel) (Homo sapiens, UniProt Q05655)
[8] = biological target: panel of more than 300 wild-type and mutant kinases (313 kinase panel) (Homo sapiens, UniProt Q15303)
[9] = biological target: panel of more than 300 wild-type and mutant kinases (313 kinase panel) (Homo sapiens, UniProt Q16539)
[10] = biological target: T3, panel of more than 300 wild-type and mutant kinases (313 kinase panel) (Homo sapiens, UniProt Q96KB5)
T3 sequence (Q96KB5 1-322): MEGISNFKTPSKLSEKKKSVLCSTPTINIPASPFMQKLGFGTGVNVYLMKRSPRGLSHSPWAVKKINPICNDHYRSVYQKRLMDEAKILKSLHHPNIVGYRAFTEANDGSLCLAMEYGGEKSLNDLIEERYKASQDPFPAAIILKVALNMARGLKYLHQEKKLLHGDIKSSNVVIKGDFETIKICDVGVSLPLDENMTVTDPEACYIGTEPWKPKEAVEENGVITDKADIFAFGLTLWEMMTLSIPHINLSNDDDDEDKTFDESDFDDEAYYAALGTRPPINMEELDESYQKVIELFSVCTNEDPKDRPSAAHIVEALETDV

[11] = biological target: panel of more than 300 wild-type and mutant kinases (313 kinase panel) (Homo sapiens, UniProt Q9H1R3)
[12] = biological target: panel of more than 300 wild-type and mutant kinases (313 kinase panel) (Homo sapiens, UniProt Q9Y5S2)
[13] = kinase CDK2/CycA2, 1 μM compound
[14] = kinase CDK2/CycE1, 1 μM compound
[15] = kinase MAP2K4, compound at 1 μM

Sequence of panel of more than 300 wild-type and mutant kinases (313 kinase panel) (Homo sapiens, UniProt P29597) (P29597 whole entry, change not shown): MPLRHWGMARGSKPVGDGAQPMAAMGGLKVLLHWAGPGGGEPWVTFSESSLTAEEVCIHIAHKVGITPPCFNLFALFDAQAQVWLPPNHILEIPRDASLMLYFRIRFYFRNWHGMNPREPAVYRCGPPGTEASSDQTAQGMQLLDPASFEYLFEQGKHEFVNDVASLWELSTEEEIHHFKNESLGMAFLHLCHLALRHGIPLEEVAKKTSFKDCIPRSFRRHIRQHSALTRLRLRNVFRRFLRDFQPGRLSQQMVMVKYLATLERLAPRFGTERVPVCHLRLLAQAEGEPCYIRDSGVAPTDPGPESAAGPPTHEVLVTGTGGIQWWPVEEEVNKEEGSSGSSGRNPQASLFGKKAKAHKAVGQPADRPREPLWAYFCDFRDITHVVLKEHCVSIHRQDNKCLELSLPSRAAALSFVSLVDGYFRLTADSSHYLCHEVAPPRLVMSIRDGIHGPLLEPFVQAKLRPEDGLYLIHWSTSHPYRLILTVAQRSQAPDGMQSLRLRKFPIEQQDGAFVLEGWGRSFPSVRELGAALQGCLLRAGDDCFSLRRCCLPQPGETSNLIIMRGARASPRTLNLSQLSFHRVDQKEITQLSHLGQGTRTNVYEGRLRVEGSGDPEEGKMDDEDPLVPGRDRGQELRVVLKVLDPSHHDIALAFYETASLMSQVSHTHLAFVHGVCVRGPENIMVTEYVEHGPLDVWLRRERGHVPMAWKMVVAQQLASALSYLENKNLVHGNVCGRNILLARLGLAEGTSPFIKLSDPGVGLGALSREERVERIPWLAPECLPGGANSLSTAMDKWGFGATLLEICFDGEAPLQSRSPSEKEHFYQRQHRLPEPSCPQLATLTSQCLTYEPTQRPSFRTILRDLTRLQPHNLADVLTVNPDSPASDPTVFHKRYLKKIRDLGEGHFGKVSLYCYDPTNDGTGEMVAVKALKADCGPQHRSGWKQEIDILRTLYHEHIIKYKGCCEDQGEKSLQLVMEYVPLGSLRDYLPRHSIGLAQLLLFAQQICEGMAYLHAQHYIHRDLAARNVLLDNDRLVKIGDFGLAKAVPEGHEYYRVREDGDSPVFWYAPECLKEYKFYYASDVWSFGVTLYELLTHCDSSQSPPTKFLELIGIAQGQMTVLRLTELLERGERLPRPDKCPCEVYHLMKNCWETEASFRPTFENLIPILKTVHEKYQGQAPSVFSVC
Sequence of panel of more than 300 wild-type and mutant kinases (313 kinase panel) (Homo sapiens, UniProt Q15303) (Q15303 26-1308, change not shown): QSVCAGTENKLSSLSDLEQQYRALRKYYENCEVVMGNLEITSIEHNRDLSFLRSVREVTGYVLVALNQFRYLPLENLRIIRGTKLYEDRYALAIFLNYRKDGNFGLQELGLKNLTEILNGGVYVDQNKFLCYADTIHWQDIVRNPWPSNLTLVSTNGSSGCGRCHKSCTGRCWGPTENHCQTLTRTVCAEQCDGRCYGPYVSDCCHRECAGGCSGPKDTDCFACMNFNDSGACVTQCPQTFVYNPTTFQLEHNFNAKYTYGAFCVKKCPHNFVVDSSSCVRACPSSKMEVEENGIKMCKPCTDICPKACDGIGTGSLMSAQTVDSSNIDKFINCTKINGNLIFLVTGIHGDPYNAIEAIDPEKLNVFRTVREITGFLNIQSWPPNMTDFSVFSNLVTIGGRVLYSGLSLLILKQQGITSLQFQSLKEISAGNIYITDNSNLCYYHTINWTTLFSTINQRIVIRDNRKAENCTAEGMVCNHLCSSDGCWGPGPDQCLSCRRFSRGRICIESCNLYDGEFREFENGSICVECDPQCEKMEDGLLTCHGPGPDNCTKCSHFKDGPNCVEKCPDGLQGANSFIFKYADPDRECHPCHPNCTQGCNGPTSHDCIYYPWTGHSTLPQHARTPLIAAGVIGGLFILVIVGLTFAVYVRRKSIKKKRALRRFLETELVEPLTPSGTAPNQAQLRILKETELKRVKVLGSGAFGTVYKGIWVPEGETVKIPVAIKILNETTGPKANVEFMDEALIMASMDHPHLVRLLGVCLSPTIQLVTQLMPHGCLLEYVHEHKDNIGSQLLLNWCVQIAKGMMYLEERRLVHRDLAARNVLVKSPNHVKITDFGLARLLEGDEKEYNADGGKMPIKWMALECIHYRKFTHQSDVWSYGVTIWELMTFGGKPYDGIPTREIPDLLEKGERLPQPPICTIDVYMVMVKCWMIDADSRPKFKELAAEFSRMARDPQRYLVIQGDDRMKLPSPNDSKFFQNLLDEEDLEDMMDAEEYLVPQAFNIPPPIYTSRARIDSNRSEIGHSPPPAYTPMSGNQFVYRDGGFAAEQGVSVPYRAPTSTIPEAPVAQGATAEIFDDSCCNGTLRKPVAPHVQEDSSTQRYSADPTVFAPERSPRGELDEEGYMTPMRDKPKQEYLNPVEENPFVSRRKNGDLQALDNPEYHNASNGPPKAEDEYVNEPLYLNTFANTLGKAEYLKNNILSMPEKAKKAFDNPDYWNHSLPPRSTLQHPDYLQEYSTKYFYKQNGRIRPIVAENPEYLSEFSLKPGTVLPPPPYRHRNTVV
Sequence of panel of more than 300 wild-type and mutant kinases (313 kinase panel) (Homo sapiens, UniProt Q16539) (Q16539 whole entry, change not shown): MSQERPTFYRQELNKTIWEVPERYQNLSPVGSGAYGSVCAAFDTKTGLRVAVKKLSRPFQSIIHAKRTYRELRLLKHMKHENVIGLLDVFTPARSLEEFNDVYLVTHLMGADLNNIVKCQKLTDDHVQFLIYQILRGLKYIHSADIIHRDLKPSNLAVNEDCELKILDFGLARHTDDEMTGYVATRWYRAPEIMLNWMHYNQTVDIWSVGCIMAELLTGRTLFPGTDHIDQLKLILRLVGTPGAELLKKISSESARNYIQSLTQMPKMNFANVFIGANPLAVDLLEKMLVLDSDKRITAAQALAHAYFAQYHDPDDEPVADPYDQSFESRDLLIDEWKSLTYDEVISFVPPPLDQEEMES

Row | Structure (SMILES) | %-inhibition of IKKα ([1]; kinase IKKα, compound at 1 μM) [%] | %-inhibition of JAK1 ([2]; kinase JAK1, compound at 1 μM) [%] | %-inhibition, CDK2/CycA2 [3, 13] [%] | %-inhibition, CDK2/CycE1 [3, 14] [%] | %-inhibition of TYK2 ([4]; kinase TYK2, compound at 1 μM) [%] | %-inhibition of MAP2K4 [5, 15] [%] | %-inhibition, CK1γ2 ([6]; kinase CK1γ2, 1 μM compound) [%] | %-inhibition of PKCδ ([7]; kinase PKCδ, 1 μM) [%] | %-inhibition of HER4 ([8]; kinase HER4, compound at 1 μM) [%] | %-inhibition of p38α ([9]; kinase p38α, 1 μM) [%] | %-inhibition of PBK ([10]; kinase PBK, 1 μM) [%] | %-inhibition of skMLCK ([11]; kinase skMLCK, 1 μM) [%] | %-inhibition of MRCKβ ([12]; kinase MRCKβ, 1 μM) [%] | %-inhibition, CDK2/CycE1 ([3]; 1 µM) [%] | %-inhibition of HER4 ([8]; 1 µM) [%] | further results
1 | CO[C@H]1C[C@@H]2CC[C@@H](C)[C@@](O)(O2)C(=O)C(=O)N2CCCC[C@H]2C(=O)O[C@H]([C@H](C)C[C@@H]2CC[C@@H](OC(=O)C(C)(CO)CO)[C@H](OC)C2)CC(=O)[C@H](C)/C=C(\C)[C@@H](O)[C@@H](OC)C(=O)[C@H](C)C[C@H](C)/C=C/C=C/C=C/1C [temsirolimus] | 1.39 | -7 | -8 | -1.35 | -6.58 | 8.51 | -3.32 | -4 | -5.46 | -5 | -9 | -1.73 | -4 | – | – | –
2 | C#Cc1cccc(Nc2ncnc3cc(OCCOC)c(OCCOC)cc23)c1 [erlotinib] | – | – | – | – | – | – | – | – | – | – | – | – | – | -2.43 | 97 | %-inhibition of IKKα ([1]; 1 µM): -5%; %-inhibition of JAK1 ([2]; 1 µM): 8%; %-inhibition, CDK2/CycA2 ([3]; 1 µM): 10%; %-inhibition of TYK2 ([4]; 1 µM): -2.7%; %-inhibition of MAP2K4 ([5]; 1 µM): -6%; %-inhibition, CK1γ2 ([6]; 1 µM): 8%; %-inhibition of PKCδ ([7]; 1 µM): 5%; %-inhibition of p38α ([9]; 1 µM): -0.474%; %-inhibition of PBK ([10]; 1 µM): 4.3%; %-inhibition of skMLCK ([11]; 1 µM): 19%; %-inhibition of MRCKβ ([12]; 1 µM): -4%
3 | CC(=O)Nc1cccc(-n2c(=O)n(C3CC3)c(=O)c3c(Nc4ccc(I)cc4F)n(C)c(=O)c(C)c32)c1 [trametinib] | 2.63 | -1.83 | 24 | 2.59 | 2.16 | 2.18 | -2.15 | -4.75 | 2.34 | -4 | -3.79 | -3.34 | -2.56 | – | – | –
4 | CS(=O)(=O)CCNCc1ccc(-c2ccc3ncnc(Nc4ccc(OCc5cccc(F)c5)c(Cl)c4)c3c2)o1 [lapatinib] | -9 | -3 | – | – | -10 | 0.409 | -1.22 | -1.67 | – | -3 | 6 | 2.11 | -5 | -2.57 | 102 | –
5 | CO[C@H]1C[C@@H]2CC[C@@H](C)[C@@](O)(O2)C(=O)C(=O)N2CCCC[C@H]2C(=O)O[C@H]([C@H](C)C[C@@H]2CC[C@@H](OCCO)[C@H](OC)C2)CC(=O)[C@H](C)/C=C(\C)[C@@H](O)[C@@H](OC)C(=O)[C@H](C)C[C@H](C)/C=C/C=C/C=C/1C [everolimus] | -3.22 | -7 | -11 | -14 | -7 | 1.55 | -2.3 | -10 | -7 | -4.27 | -10 | -8 | 0.688 | – | – | –
6 | CNC(=O)c1cc(Oc2ccc(NC(=O)Nc3ccc(Cl)c(C(F)(F)F)c3)c(F)c2)ccn1 [regorafenib] | -0.333 | 31 | -12 | -2.7 | -3.68 | 0.434 | -3 | 2.2 | 3.81 | 94 | -29 | 6.59 | -17 | – | – | –
